Data reported in US20150087673A1, “METHODS FOR USING AND BIOMARKERS FOR AMPK-ACTIVATING COMPOUNDS” (RIGEL PHARMACEUTICALS, INC., priority 2013, published 2015).
pEC50: −log10 of the molar value.

Test system: AMPK
Assay: AMPK activation assay (enzyme-linked immunosorbent assay)
Type: cell-based
Experimental: Compounds were assayed for their ability to activate AMPK using an enzyme-linked immunosorbent assay. Reagents and procedures for measuring AMPK activation are well known and kits for AMPK activation assays are commercially available.

## O=C(N[C@@H]1CCNC[C@@H]1F)c1ccc(C(=O)N2CCN(Cc3ccc(F)cc3)CC2)cn1 (relative stereo) [Compound 102, 5-(4-(4-fluorobenzyl)piperazine-1-carbonyl)-N-(cis-3-fluoropiperidin-4-yl)picolinamide]
  pEC50: 5.00 to 5.30

## O=C(N[C@@H]1CCN(Cc2ccncc2)C[C@@H]1F)c1ccc(C(=O)N2CCN(Cc3ccc(F)cc3)CC2)cn1 (relative stereo) [Compound 104, N-(cis-3-fluoro-1-(pyridin-4-ylmethyl)piperidin-4-yl)-5-(4-(4-fluorobenzyl)piperazine-1-carbonyl)picolinamide]
  pEC50: > 6.30

## O=C(N[C@@H]1CCN(Cc2ccc(Cl)cc2)C[C@@H]1F)c1ccc(C(=O)N2CCN(Cc3ccc(F)cc3)CC2)cn1 (relative stereo) [Compound 127, N-(cis-1-(4-chlorobenzyl)-3-fluoropiperidin-4-yl)-5-(4-(4-fluorobenzyl)piperazine-1-carbonyl)picolinamide]
  pEC50: > 6.30

## CS(=O)(=O)c1ccc(C(=O)C2CCN(C(=O)c3ccc(C(=O)N[C@@H]4CCN(Cc5ccc(C#N)cc5)C[C@H]4F)nc3)CC2)cc1 (relative stereo) [Compound 252, N-((trans)-1-(4-cyanobenzyl)-3-fluoropiperidin-4-yl)-5-(4-(4-(methylsulfonyl)benzoyl)piperidine-1-carbonyl)picolinamide]
  pEC50: 6.00 to 6.30

## CS(=O)(=O)c1ccc(C(=O)C2CCN(C(=O)c3ccc(C(=O)N[C@@H]4CCN(Cc5ccc(OC(F)(F)F)cc5)C[C@H]4F)nc3)CC2)cc1 (relative stereo) [Compound 253, N-((trans)-3-fluoro-1-(4-(trifluoromethoxy)benzyl)piperidin-4-yl)-5-(4-(4-(methylsulfonyl)benzoyl)piperidine-1-carbonyl)picolinamide]
  pEC50: 6.00 to 6.30

## CS(=O)(=O)c1ccc(OC2CCN(C(=O)c3ccc(C(=O)N[C@@H]4CCN(Cc5ccc(C#N)cc5)C[C@H]4F)nc3)CC2)cc1 (relative stereo) [Compound 254, N-((trans)-1-(4-cyanobenzyl)-3-fluoropiperidin-4-yl)-5-(4-(4-(methylsulfonyl)phenoxy)piperidine-1-carbonyl)picolinamide]
  pEC50: > 6.30

## CS(=O)(=O)c1ccc(OC2CCN(C(=O)c3ccc(C(=O)N[C@@H]4CCN(Cc5ccc(OC(F)(F)F)cc5)C[C@H]4F)nc3)CC2)cc1 (relative stereo) [Compound 255, N-((trans)-3-fluoro-1-(4-(trifluoromethoxy)benzyl)piperidin-4-yl)-5-(4-(4-(methylsulfonyl)phenoxy)piperidine-1-carbonyl)picolinamide]
  pEC50: > 6.30

## N#Cc1ccc(CN2CCC(NC(=O)c3ccc(C(=O)N4CC[C@H](Oc5ccc(C#N)cc5)[C@@H](F)C4)cn3)CC2)cc1 (relative stereo) [Compound 279, N-(1-(4-cyanobenzyl)piperidin-4-yl)-5-((trans)-4-(4-cyanophenoxy)-3-fluoropiperidine-1-carbonyl)picolinamide]
  pEC50: > 6.30

## COc1ccc(C(=O)C2CCN(C(=O)c3ccc(C(=O)N[C@@H]4CCN(Cc5ccc(C#N)cc5)C[C@H]4F)cn3)CC2)cc1 (relative stereo) [Compound 349, N-((trans)-1-(4-cyanobenzyl)-3-fluoropiperidin-4-yl)-6-(4-(4-methoxybenzoyl)piperidine-1-carbonyl)nicotinamide]
  pEC50: > 6.30

## COc1ccc(C(=O)C2CCN(C(=O)c3ccc(C(=O)N[C@@H]4CCN(Cc5ccc(OC(F)(F)F)cc5)C[C@H]4F)cn3)CC2)cc1 (relative stereo) [Compound 350, N-((trans)-3-fluoro-1-(4-(trifluoromethoxy)benzyl)piperidin-4-yl)-6-(4-(4-methoxybenzoyl)piperidine-1-carbonyl)nicotinamide]
  pEC50: > 6.30

## COc1ccc(C(=O)C2CCN(C(=O)c3ccc(C(=O)N[C@@H]4CCN(Cc5ccc(N6CCCC6)cc5)C[C@H]4F)cn3)CC2)cc1 (relative stereo) [Compound 352, N-((trans)-3-fluoro-1-(4-(pyrrolidin-1-yl)benzyl)piperidin-4-yl)-6-(4-(4-methoxybenzoyl)piperidine-1-carbonyl)nicotinamide]
  pEC50: > 6.30

## COc1ccc(C(=O)C2CCN(C(=O)c3ccc(C(=O)N[C@@H]4CCN(Cc5ccc(OC(C)C)cc5)C[C@H]4F)cn3)CC2)cc1 (relative stereo) [Compound 353, N-((trans)-3-fluoro-1-(4-isopropoxybenzyl)piperidin-4-yl)-6-(4-(4-methoxybenzoyl)piperidine-1-carbonyl)nicotinamide]
  pEC50: > 6.30

## COc1ccc(C(=O)C2CCN(C(=O)c3ccc(C(=O)N[C@@H]4CCN(Cc5ccc(C#N)c(F)c5)C[C@H]4F)cn3)CC2)cc1 (relative stereo) [Compound 354, N-((trans)-1-(4-cyano-3-fluorobenzyl)-3-fluoropiperidin-4-yl)-6-(4-(4-methoxybenzoyl)piperidine-1-carbonyl)nicotinamide]
  pEC50: > 6.30

## N#Cc1ccc(CN2CC[C@@H](NC(=O)c3ccc(C(=O)N4CCC(Oc5ccc(S(=O)(=O)C(F)(F)F)cc5)CC4)nc3)[C@H](F)C2)cc1 (relative stereo) [Compound 451, N-((trans)-1-(4-cyanobenzyl)-3-fluoropiperidin-4-yl)-6-(4-(4-(trifluoromethylsulfonyl)phenoxy)piperidine-1-carbonyl)nicotinamide]
  pEC50: > 6.30

## COc1ccc(C(=O)C2CCN(C(=O)c3ccc(C(=O)N[C@@H]4CCN(Cc5ccc(C#N)cc5)C[C@@H]4F)cn3)CC2)cc1 (relative stereo) [Compound 454, N-((cis)-1-(4-cyanobenzyl)-3-fluoropiperidin-4-yl)-6-(4-(4-methoxybenzoyl)piperidine-1-carbonyl)nicotinamide]
  pEC50: > 6.30

## COc1ccc(C(=O)C2CCN(C(=O)c3ccc(C(=O)N[C@@H]4CCN(Cc5ccc(OC(F)(F)F)cc5)C[C@@H]4F)cn3)CC2)cc1 (relative stereo) [Compound 461, N-((cis)-3-fluoro-1-(4-(trifluoromethoxy)benzyl)piperidin-4-yl)-6-(4-(4-methoxybenzoyl)piperidine-1-carbonyl)nicotinamide]
  pEC50: > 6.30

## N#Cc1ccc(CN2CCC(NC(=O)c3ccc(C(=O)N4CCN(Cc5ccc(F)cc5)CC4)nc3)CC2)cc1 [Compound 1]
  pEC50: > 6.30

## N#Cc1ccc(CN2CCC(NC(=O)c3ccc(C(=O)N4CCNCC4)cn3)CC2)cc1 [Compound 2, N-(1-(4-cyanobenzyl)piperidin-4-yl)-5-(piperazine-1-carbonyl)picolinamide]
  pEC50: < 5.00

## O=C(c1ccc(C(=O)N2CCN(Cc3ccc(F)cc3)CC2)nc1)N1CCN(Cc2ccc(F)cc2)CC1 [Compound 3, pyridine-2,5-diylbis((4-(4-fluorobenzyl)piperazin-1-yl)methanone)]
  pEC50: 6.00 to 6.30

## N#Cc1ccc(C(=O)N2CCC(NC(=O)c3ccc(C(=O)N4CCN(Cc5ccc(F)cc5)CC4)cn3)CC2)cc1 [Compound 4, N-(1-(4-cyanobenzoyl)piperidin-4-yl)-5-(4-(4-fluorobenzyl)piperazine-1-carbonyl)picolinamide]
  pEC50: 6.00 to 6.30

## N#Cc1ccc(CN2CCC(NC(=O)c3ccc(C(=O)Nc4cccc(Cc5ccccc5)c4)cn3)CC2)cc1 [Compound 5, N^2-(1-(4-cyanobenzyl)piperidin-4-yl)-N^5-(3-benzylphenyl)pyridine-2,5-dicarboxamide]
  pEC50: 6.00 to 6.30
